We go through two compounds from article PMC7136958, “Targeting the pregnane X receptor using microbial metabolite mimicry” (EMBO Molecular Medicine, 2020).

One series deals with T1, PXR (Homo sapiens, UniProt O75469).
T1 sequence (O75469 1-434): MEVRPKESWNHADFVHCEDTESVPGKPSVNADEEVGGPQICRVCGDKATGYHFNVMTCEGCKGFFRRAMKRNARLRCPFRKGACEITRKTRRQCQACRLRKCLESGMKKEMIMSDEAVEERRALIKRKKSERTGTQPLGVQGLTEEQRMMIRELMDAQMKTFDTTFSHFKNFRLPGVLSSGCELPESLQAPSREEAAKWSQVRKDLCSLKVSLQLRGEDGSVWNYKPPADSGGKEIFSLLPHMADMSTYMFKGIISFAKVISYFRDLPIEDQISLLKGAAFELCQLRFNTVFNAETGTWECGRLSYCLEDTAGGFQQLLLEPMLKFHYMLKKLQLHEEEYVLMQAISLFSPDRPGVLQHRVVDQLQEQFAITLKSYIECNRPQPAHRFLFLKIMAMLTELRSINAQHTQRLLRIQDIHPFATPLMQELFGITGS
The series can be described thus: Ligand efficiency metric (LEM) analysis. Particulars: NSEI-nBEI plane, from PXR reporter Emax. Further details: expressed in transfected cells; host or cells: LS180. An excerpt:
Ligand efficiency metric (LEM) analysis for FKK ligand efficiency. The ligand efficiency metrics (LEMs) of compounds FKK1 to 10 and FKK999 as a reference compound, have been analyzed by using a web tool named AtlasCBS which represents LEMs as variables for a Cartesian mapping of chemico-biological space (CBS). In particular, Cartesian planes combine three critical variables in drug discovery (affinity, size, and polarity) into easily interpretable ‘efficiency planes’ useful to guide a drug discovery process. In the Cartesian plane, each target:ligand pair appears as a point whose coordinates are given by pairs of values derived from the affinity of the ligand toward the target (Ki or equivalent) in relation to its size (MW or number of non-hydrogen atoms NHA), and its polarity (expressed as Polar Surface Area, PSA, or number of polar atoms, NPOL = count of N + O). The first one represents a size-related LEM and the second a polarity-related LEM. Consistently, compounds that correspond to marketed drugs typically occupy the upper right quadrant of the plots (‘Nort h-East’ direction, NE), where both the efficiency -pe r-size and efficiency -per-polarity are optimized 1,2.
Our results are represented in the efficiency plane NS EI-nBEI where:
NSEI = –log Ki/NPOL (N, O) = pKi/NPOL (N, O)
As a measure of activity of the above compounds, the reciprocal of the percentage efficacy values (1/Efficacy [%]) obtained in the PXR-dependent luciferase activity test (Emax values from Fig. 1) were used in lieu of the affinity constants (Ki in the above equations). FKK4 would appear as the most efficient compound since it is placed in the NE panel (GL, unpublished observations). However, this congener might suffer from metabolic liability with its N-protecting group possibly generating toxic aldehydes by oxidative cleavage in vivo. Unambiguously, the two most efficient compounds besides FKK4 are FKK5 and FKK6 which were therefore considered suitable lead compounds, as al so

Series [1] has as its system pxr -/- mice. The series can be described thus: PXR target gene expression in pxr -/- mice after FKK6 gavage. Particulars: for Cyp3a11 fold expression / mdr1 fold expression: Fig 4e. It counts as in vivo, mouse. How it is done:
(Scheer et al, 2010) were administered 10% DMSO (n = 3) or FKK6 (n = 3) in 3 or 5 doses, with each dose interval of 12 h. Each gavage dose volume was 100 μl. 2–4 h after the dosing period, mice were sacrificed, and tissues were harvested for further analysis. The mouse studies were performed three independent times over an 18‐month period. All purchased mice were acclimatized in the Einstein vivarium for ~ 2 weeks before experiments started. […]. The room temperature was maintained at 25 ± 2°C with 55 ± 5% humidity. All studies were approved by the Institute of Animal Studies at the Albert Einstein College of Medicine, INC (IACUC # 20160706, 20160701 and preceding protocols), and specific animal protocols were also approved by additional protocols (IACUC# 20170406, 20170504) and Animal Care and Use Review Office (ACURO) of the US Army Medical Research and Materiel Command (PR160167, W81XWH‐17‐1‐0479). […]
Mouse small, large intestine and liver samples were collected and total RNAs were […]
isolated. […] Each tissue PCR was […]
repeated in quadruplicate. The expression was normalized to internal control, GAPDH. ( b,d) The histograms show mean (95 %CI) values, c, mean (SD) and two way ANOVA followed with Tukey's post hoc test. The entire experiment was repeated n = 3 for reproducibility. The data shown is one representative experiment .

Another series addresses T2, wild-type PXR.1 (Homo sapiens, UniProt O75469).
T2 construct: expressed in transfected cells; host or cells: HEK293T
In words: PXR luciferase reporter assay in HEK293T cells, wild-type PXR.1. Particulars: 10 μM, replicate wells. It counts as cell-based. How it is done:
After 24‐h transfection using Lipofectamine® LTX ([…] of plasmid), cells were exposed to FKK5 for 24 h. […] The data are expressed as mean ± SD RLU (relative light units from luciferase assay) normalized to β‐Gal activity in the same well. Differences were tested using 2‐way ANOVA with Tukey's multiple comparison test, and P < 0.05 was considered significant (*).
(Reporter assays use an easily measured gene product as a stand-in for the process of interest.)

The subject of series [2] is pxr -/- mice. The series can be described thus: DSS-induced acute colitis in pxr -/- mice. It counts as in vivo, mouse. The method, then: For these studies, 7‐ to 8‐week‐old female (DeVoss & Diehl, 2014) hPXR (mice expressing the human PXR gene) and pxr ^−/− mice (C57BL/6 background) were bred and each genotype was separated into two treatment groups using a random allocation method via coin toss—(i) n = 3 control (0.8% DMSO in 100 μl drinking water) and (ii) n = 3 FKK6 (200 μM (0.4 mg/kg/day) in 0.8% DMSO in 100 μl drinking water) administered once per day via oral gavage, and via intrarectal gavage for a total of 10 consecutive days The dose was chosen based on the extrapolation of the total dose delivered over 10 days to mice (~ 4 mg/kg), which is equivalent to that delivered to mice for determining target gene expression over 3–5 doses (3–5 mg/kg). […] Fecal pellets were collected prior to the initiation of the treatment protocol. All mice were starved overnight (12 h) to allow for smooth intrarectal delivery; however, the mice were allowed to feed ad libitum during the day. After 10 days, the mice were sacrificed and organs/tissues/feces harvested for further study. Prior to necropsy, mice were administered FITC‐dextran, and mouse serum was collected for the FITC‐dextran assay as previously described (Vetizou et al, 2015). The experimenter was not blinded to treatment allocation; however, the pathologist (KS) evaluating histologic scores was blinded to treatment allocation. […]

“And” between values parts separate entries of the source, which are not always exact repeats. Identical values can stand only once.

`C#CCC(O)(c1ccncc1)c1cc2ccccc2n1S(=O)(=O)c1ccccc1` (stereo not drawn) [FKK6]: the LEM analysis prediction result on PXR is “best candidates for further studies”. Further, the “PXR target gene (mdr1) expression across organs” value with pxr -/- mice [1] (36 h and 60 h) was “no effect”. Besides, the Cyp3a11 fold expression in the series with pxr -/- mice [1] (Large Intestine) was 0.69 fold and 0.64 fold and 0.66 fold; with pxr -/- mice [1] (Liver), 0.84 fold and 1.18 fold and 1.42 fold; with pxr -/- mice [1] (Small Intestine), 0.98 fold and 0.96 fold and 1.09 fold. For the same compound, the mdr1 fold expression in the series with pxr -/- mice [1] (Large Intestine) is 0.87 fold and 0.67 fold and 0.93 fold; with pxr -/- mice [1] (Small Intestine), 0.52 fold and 0.37 fold and 0.63 fold. In addition, the “target gene expression levels (cyp3a11, mdr1) decrease vs DMSO” value with pxr -/- mice [1] (mouse, in vivo) was ≤ 1.5 fold. Moreover, the “PXR reporter activity, RLU/B-Gal” value at wild-type PXR.1 was 49029.5 RLU/B-Gal and 34153.4 RLU/B-Gal and 41512.1 RLU/B-Gal and 34385.8 RLU/B-Gal. Besides, the “weight loss, colon length, inflammation score, lipocalin 2, FITC-dextran levels” value with pxr -/- mice [2] (FKK6 200 μM, 10 days) is listed as “did not alter”. The “% weight loss from baseline (day 10)” value with pxr -/- mice [2] (pxr -/- mice, DSS colitis, Fig 6a, individual values) is 24% and 25% and 22%.
With `O=C(c1ccncc1)c1cc2ccccc2n1S(=O)(=O)c1ccccc1` [FKK5, (1-(phenylsulfonyl)-1H-indol-2-yl)(pyridin-4-yl)methanone], the LEM analysis prediction result on PXR was “best candidates for further studies”.
